Test results from patent publication US12194019B2, “Compositions and methods for treating pain with wogonin” (BRIGHAM YOUNG UNIVERSITY, priority 2018, dated 2025).
Marks after values point to notes of the source that are not given here.

Columns and labels:
[1] = tested on: TGF-β1 gene expression in human chondrocytes (TC28a2); assay: qRTPCR of TGF-β1 gene expression in human chondrocytes; format: cell-based
Method: Human chondrocytes (TC28a2 Sigma-Aldrich, St. Louis, MO, USA) were cultured in EmbryoMax® DMEM (SLM-120 B Millipore, St. Louis, MO, USA) supplemented with 10% Fetal Calf Serum (F-2442-50 ML Sigma-Aldrich, St. Louis, MO, USA) to 80% confluence. Treatments consisted of: • 1. Untreated plate: Remove old media and replace with 10 mL fresh media. Incubate 4 hours. Remove media, rinse 3× with PBS and collect total RNA according to manufacturer's protocol ([…] ZYMO Research, Irvine, CA, USA). • 2. Treat with 10 μM wogonin (dissolved in DMSO). Remove old media and replace with 10 mL conditioned media containing wogonin. Incubate 4 hours. Remove media, rinse 3× with PBS and collect total RNA according to manufacturer's protocol ([…] ZYMO Research, Irvine, CA, USA). • 3. Treat with 1 ng/mL IL-1β (dissolved in dds water). Remove old media and replace with 10 mL conditioned media containing IL-1β. Incubate 4 hours. Remove media, rinse 3× with PBS and collect total RNA according to manufacturer's protocol ([…] ZYMO Research, Irvine, CA, USA). • 4. Treat with 10 μM wogonin; wait 1 hour and add 1 ng/mL IL-1β, incubate 4 hours. Remove old media and replace with 10 mL conditioned media containing wogonin. Incubate 1 hour. […] Quantitative Real-time Polymerase Chain Reaction (qRTPCR) was performed using the Life Technologies One Step Plus Sequence Detection System and Software (Life Technologies). […]

[2] = tested on: BBS 3 gene expression in human chondrocytes (TC28a2); assay: qRTPCR of BBS 3 gene expression in human chondrocytes; format: cell-based
Method: Human chondrocytes (TC28a2 Sigma-Aldrich, St. Louis, MO, USA) were cultured in EmbryoMax® DMEM (SLM-120 B Millipore, St. Louis, MO, USA) supplemented with 10% Fetal Calf Serum (F-2442-50 ML Sigma-Aldrich, St. Louis, MO, USA) to 80% confluence. Treatments consisted of: • 1. Untreated plate: Remove old media and replace with 10 mL fresh media. Incubate 4 hours. Remove media, rinse 3× with PBS and collect total RNA according to manufacturer's protocol ([…] ZYMO Research, Irvine, CA, USA). • 2. Treat with 10 μM wogonin (dissolved in DMSO). Remove old media and replace with 10 mL conditioned media containing wogonin. Incubate 4 hours. Remove media, rinse 3× with PBS and collect total RNA according to manufacturer's protocol ([…] ZYMO Research, Irvine, CA, USA). • 3. Treat with 1 ng/mL IL-1β (dissolved in dds water). Remove old media and replace with 10 mL conditioned media containing IL-1β. Incubate 4 hours. Remove media, rinse 3× with PBS and collect total RNA according to manufacturer's protocol ([…] ZYMO Research, Irvine, CA, USA). • 4. Treat with 10 μM wogonin; wait 1 hour and add 1 ng/mL IL-1β, incubate 4 hours. Remove old media and replace with 10 mL conditioned media containing wogonin. Incubate 1 hour. Add 10 μL 1 ng/mL IL-1β. Pipet media up and down in cell culture dish 3× gently to mix. Incubate 4 hours. Remove media, rinse 3× with PBS and collect total RNA according to manufacturer's protocol ([…] ZYMO Research, Irvine, CA, USA). cDNA was made from total RNA according to manufacturer's protocol (1725038 BIO-RAD, Hercules, CA, USA). Quantitative Real-time Polymerase Chain Reaction (qRTPCR) was performed using the Life Technologies One Step Plus Sequence Detection System and Software (Life Technologies). SYBR-green-based PrimeTime assays (IDT) were used to detect human TGF-β1 and BBS 3.

[3] = tested on: OA mouse model (surgical destabilization of the medial meniscal ligament, DMM); assay: Activity wheel use after DMM surgery, topical wogonin cream (Example 1); format: in vivo
Method: The use of wogonin for the treatment of osteoarthritic (OA) pain was investigated. Specifically, the benefit of using small doses of wogonin applied topically in a cream with penetration enhancers was investigated. The cream formulation shown in Table 2 was used in this study.
(§1) An OA mouse model was used to determine the efficacy of wogonin treatment. OA-like disease was induced by surgical destabilization of the medial meniscal ligament (DMM) of laboratory mice. Repair of the knee was assessed using the Modified Mankin Score which is widely accepted as the way to objectively compare OA progression by histological evaluation of a knee joint (See Larkin D J et al., Frontiers in physiology. 2013; 4:121 and Mankin H J. The New England journal of medicine. 1974; 291(24):1285-92). The mice were housed in activity wheel cages linked to a computer for activity tracking throughout the duration of the experiment. Twenty-four hours after surgical intervention the following treatments were applied topically to the affected knee: 0.00000142 g wogonin (500 μM wogonin) (n=6); 0.0000000028 g wogonin (10 μM wogonin) (n=6); and 10 μl vehicle (n=6). Treatment was applied every third day for 28 days.
At day 28 this pattern was repeated.

[4] = tested on: OA mouse model (DMM); assay: Modified Mankin score / histological evaluation of knee joint after DMM surgery (Example 1); format: in vivo
Method: as §1
(§2) While the wheel use data were encouraging, inhibiting inflammation alone and blocking pain, is insufficient to block the progression of OA. At the conclusion of the experiment (day 28) mice were sacrificed, knees collected, fixed and studied for Modified Mankin score and HtrA1 expression as previously reported in Spencer K MS and Jeffrey Z Kartchner W. Journal of Arthritis. 2015; 04(03). HtrA1 is the first in the biomarker cascade that is associated with OA progression.
(§3) Mouse knee OA was induced by surgical destabilization of the medial meniscal ligament (DMM surgery) and mice were treated with 10 μM of wogonin. Controls were DMM plus vehicle. […] Note the fissure and rough articular cartilage surface (see arrows) in the control knee.

[5] = tested on: MMP-3; details: intra-articular injection, inflammation initiated by IL-1β; cited from earlier work
[6] = tested on: OA mouse model (DMM); assay: Biomarker and Mankin scoring of knees (Example 2); format: in vivo; details: 500 μM (DMSO) vs 10 μM (cream) wogonin
Method: (§4) A second experiment using small doses of wogonin applied topically either in DMSO or in a cream with penetration enhancers was conducted. In this study, OA was induced by DMM surgery. Twenty four hours after surgery treatment was applied to the affected knee. The treatments included 0.00000142 g wogonin in 10 μl DMSO (500 μM wogonin) applied to the skin at the location of patellar tendon (n=5); 10 μl DMSO applied to the skin at the location of patellar tendon (n=5); 0.0000000028 g wogonin (10 μl G2 Cream E/10 μM wogonin) to the skin at the location of the patellar tendon (n=5). Treatment was applied every third day for 28 days. Immediately after surgery, mice were placed in an activity wheel cage in which wheel use was recorded on a computer. […] At day 28 this pattern was repeated.
Again, below 1 μM and there would be insufficient wogonin to have an effect. Above 500 μM and there would be too much suppression of inflammation and ceramides. TGF-β1 is inhibited and chondrocytes can't return to homeostasis, […].

[7] = tested on: OA mouse model (DMM); assay: Activity wheel use after DMM surgery, wogonin in DMSO or in cream (Example 2); format: in vivo
Method: as §4

[8] = tested on: mouse formalin test; details: intraperitoneal injection, 200 mg/kg; cited from earlier work
[9] = tested on: HtrA1; assay: HtrA1 immunohistochemical staining in knee joints after DMM surgery (Example 1); format: in vivo, mouse; details: knees treated with 10 μM wogonin, day 28
Source text: as §2, §3

Q: Which results are given for “IL-1β: pro-inflammatory cytokine used at 1 ng/mL to treat human chondrocytes [reference compound]”?
A: Drop in gene expression of TGF-β1 ([1]; 1 ng/mL IL-1β, 4 hours, vs untreated): 80%; Effect on BBS 3 gene expression ([2]; 1 ng/mL IL-1β alone, 4 hours): no effect

Q: For COc1c(O)cc(O)c2c(=O)cc(-c3ccccc3)oc12 [Wogonin, 5,7-dihydroxy-8-methoxyflavone], which “Average Wheel Use” value ([3]; 10 μM wogonin cream topical, Day 7) is on record?
A: 12443**

Q: What about the “Average Wheel Use” value ([3]; 10 μM wogonin cream topical, Day 7, listed as wogonin) of the same molecule?
A: significantly higher wheel use than control or vehicle alone

Q: And the “Average Wheel Use” value ([3]; 10 μM wogonin cream topical, Day 14)?
A: 22000***

Q: And the “Average Wheel Use” value ([3]; 10 μM wogonin cream topical, Day 14, listed as wogonin)?
A: higher activity wheel use than those receiving 500 μM

Q: And the “Average Wheel Use” value ([3]; 10 μM wogonin cream topical, Day 28)?
A: 19358**

Q: What about the “Average Wheel Use” value ([3]; 500 μM wogonin cream topical to knee every third day, Day 7) of the same molecule?
A: 12608**

Q: And the “Average Wheel Use” value ([3]; 500 μM wogonin cream topical to knee every third day, Day 7, listed as wogonin)?
A: significantly higher wheel use than control or vehicle alone

Q: What about the “Average Wheel Use” value ([3]; 500 μM wogonin cream topical, Day 14) of the same molecule?
A: 17910**

Q: And the “Average Wheel Use” value ([3]; 500 μM wogonin cream topical, Day 28)?
A: 16528*

Q: And the “Drop in gene expression of TGF-β1” value ([1]; 10 μM wogonin pre-treatment 1 hour, then 1 ng/mL IL-1β 4 hours)?
A: < 40%

Q: And the “OA as measured by Modified Mankin score” value ([4]; 1 μM wogonin applied topically)?
A: sufficient to significantly reduce OA

Q: And the “Benefit in reducing the progression of OA” value ([4]; 10 μM compared to 500 μM wogonin)?
A: greater benefit

Q: What about the “Modified Mankin score of OA” value ([4]; 10 μM wogonin topical vs DMM plus vehicle, day 28) of the same molecule?
A: statistically (p>0.05) lower

Q: And the “Effect on inflammation and biomarkers” value ([4]; dosages above 500 μM wogonin)?
A: too much suppression of inflammation and biomarkers

Q: What about the “Effect on OA” value ([4]; dosages below 1 μM wogonin) of the same molecule?
A: insufficient to have an effect

Q: And the “Articular cartilage surface (histology)” value ([4]; knees treated with 10 μM wogonin, day 28)?
A: essentially normal

Q: And the “Lowering of the wogonin response (BBS 3 gene expression) by IL-1β” value ([2]; 10 μM wogonin pre-treatment, then 1 ng/mL IL-1β)?
A: almost half

Q: And the “Increase in gene expression of BBS 3” value ([2]; 10 μM wogonin, 4 hours)?
A: 125%

Q: What about the “Increase in BBS 3 expression” value ([2]; wogonin, human chondrocytes) of the same molecule?
A: 1.25 fold

Q: And the “MMP-3 expression in articular cartilage” value [5]?
A: decreased MMP-3 expression

Q: What about the “Biomarker and Mankin scoring of knees” value [6] of the same molecule?
A: higher dose of wogonin is beneficial initially but the lower dose remained beneficial throughout the experiment

Q: What about the “Average (activity wheel use)” value ([7]; 500 μM wogonin in 10 μl DMSO topical, Day 7, listed as Wogonin + DMSO) of the same molecule?
A: 12608*

Q: What about the “Average (activity wheel use)” value ([7]; 500 μM wogonin in 10 μl DMSO topical, Day 7, listed as wogonin in DMSO) of the same molecule?
A: significantly higher wheel use than DMSO only

Q: And the “Average (activity wheel use)” value ([7]; 500 μM wogonin in DMSO topical, Day 14, listed as DMSO+wogonin)?
A: no difference

Q: What about the “Average (activity wheel use)” value ([7]; 500 μM wogonin in DMSO topical, Day 14, listed as Wogonin + DMSO) of the same molecule?
A: 15191

Q: And the “Average (activity wheel use)” value ([7]; 500 μM wogonin in DMSO topical, Day 28)?
A: 15492

Q: What about the “Pain symptoms in mouse formalin test” value [8] of the same molecule?
A: improvement of pain symptoms

Q: And the “Expression of HtrA1 (immunohistochemical staining)” value [9]?
A: essentially absent
